Results from article PMC10218596 (International Journal of Molecular Sciences, 2023).
Like-named read-outs stand apart in the source and are kept apart here. Where a SMILES comes first, the peptide text is derived from it. Bridges are numbered along the chain shown (N, C = ends).

Columns and labels:
h[α6K61R/α3]β4 = molecular target: T1, h[α6K61R/α3]β4 (Homo sapiens, UniProt P30926+P32297+Q15825, K94R); assay: cell-based
T1 construct: formed by splicing the N-terminal extracellular domain of the α6 subunit with the α3 subunit; human nAChR α3 subunit (CHRNA3); expressed in transfected cells; host or cells: Xenopus laevis oocytes injected with cRNA (plasmids from the University of Utah)

hα6/α3β4K31R = molecular target: T2, hα6/α3β4K31R (Homo sapiens, UniProt P30926+Q15825, K57R); format: cell-based
T2 construct: splicing the N-terminal extracellular domain of the α6 subunit with the α3 subunit; mutant made by PCR mutagenesis; host or cells: Xenopus laevis oocytes injected with cRNA

hα6/α3β4T161S = molecular target: T3, hα6/α3β4T161S (Homo sapiens, UniProt P30926+Q15825, T187S); format: cell-based
T3 construct: formed by splicing the N-terminal extracellular domain of the α6 subunit with the α3 subunit; human nAChR α3 subunit (CHRNA3); expressed in transfected cells; host or cells: Xenopus laevis oocytes injected with cRNA (plasmids from the University of Utah)

hα6/α3β4L107V = molecular target: T4, hα6/α3β4L107V (Homo sapiens, UniProt P30926+Q15825, L133V); assay: cell-based
T4 construct: splicing the N-terminal extracellular domain of the α6 subunit with the α3 subunit; mutant made by PCR mutagenesis; host or cells: Xenopus laevis oocytes injected with cRNA

h[α6M67T/α3]β4 [1] = molecular target: T5, h[α6M67T/α3]β4 (Homo sapiens, UniProt P30926+P32297+Q15825, M100T); format: cell-based
T5 construct: formed by splicing the N-terminal extracellular domain of the α6 subunit with the α3 subunit; fusion partner: remainder of the human α3 subunit (CHRNA3); expressed in transfected cells; host or cells: Xenopus laevis oocytes injected with cRNA

h[α6M67T/α3]β4 [2] = format: cell-based, human
h[α6R3Q/α3]β4 = molecular target: T6, h[α6R3Q/α3]β4 (Homo sapiens, UniProt P30926+P32297+Q15825, R36Q); format: cell-based
T6 construct: formed by splicing the N-terminal extracellular domain of the α6 subunit with the α3 subunit; human nAChR α3 subunit (CHRNA3); expressed in transfected cells; host or cells: Xenopus laevis oocytes injected with cRNA (plasmids from the University of Utah)

hα6/α3β4S165I = molecular target: T7, hα6/α3β4S165I (Homo sapiens, UniProt P30926+Q15825, S191I); format: cell-based
T7 construct: formed by splicing the N-terminal extracellular domain of the α6 subunit with the α3 subunit; human nAChR α3 subunit (CHRNA3); expressed in transfected cells; host or cells: Xenopus laevis oocytes injected with cRNA (plasmids from the University of Utah)

h[α6Q14R/α3]β4 [3] = format: cell-based, human
h[α6Q14R/α3]β4 [4] = molecular target: T8, h[α6Q14R/α3]β4 (Homo sapiens, UniProt P30926+P32297+Q15825, Q47R); format: cell-based
T8 construct: formed by splicing the N-terminal extracellular domain of the α6 subunit with the α3 subunit; human nAChR α3 subunit (CHRNA3); expressed in transfected cells; host or cells: Xenopus laevis oocytes injected with cRNA (plasmids from the University of Utah)

hα6/α3β4T65A = molecular target: T9, hα6/α3β4T65A (Homo sapiens, UniProt P30926+Q15825, T91A); format: cell-based
T9 construct: splicing the N-terminal extracellular domain of the α6 subunit with the α3 subunit; mutant made by PCR mutagenesis; host or cells: Xenopus laevis oocytes injected with cRNA

h[α6I56V/α3]β4 = molecular target: T10, h[α6I56V/α3]β4 (Homo sapiens, UniProt P30926+P32297+Q15825, I89V); format: cell-based
T10 construct: formed by splicing the N-terminal extracellular domain of the α6 subunit with the α3 subunit; human nAChR α3 subunit (CHRNA3); expressed in transfected cells; host or cells: Xenopus laevis oocytes injected with cRNA (plasmids from the University of Utah)

hα6/α3β4R70C = molecular target: T11, hα6/α3β4R70C (Homo sapiens, UniProt P30926+Q15825, R96C); format: cell-based
T11 construct: splicing the N-terminal extracellular domain of the α6 subunit with the α3 subunit; mutant made by PCR mutagenesis; host or cells: Xenopus laevis oocytes injected with cRNA

hα6/α3β4V53I = molecular target: T12, hα6/α3β4V53I (Homo sapiens, UniProt P30926+Q15825, V79I); format: cell-based
T12 construct: splicing the N-terminal extracellular domain of the α6 subunit with the α3 subunit; mutant made by PCR mutagenesis; host or cells: Xenopus laevis oocytes injected with cRNA

h[α6V32L/α3]β4 [5] = molecular target: T13, h[α6V32L/α3]β4 (Homo sapiens, UniProt P30926+P32297+Q15825, V65L); assay: cell-based
T13 construct: formed by splicing the N-terminal extracellular domain of the α6 subunit with the α3 subunit; human nAChR α3 subunit (CHRNA3); expressed in transfected cells; host or cells: Xenopus laevis oocytes injected with cRNA (plasmids from the University of Utah)

h[α6V32L/α3]β4 [6] = assay: cell-based; parameters: species or system human
hα6/α3β4Y133H = molecular target: T14, hα6/α3β4Y133H (Homo sapiens, UniProt P30926+Q15825, Y159H); format: cell-based
T14 construct: splicing the N-terminal extracellular domain of the α6 subunit with the α3 subunit; mutant made by PCR mutagenesis; host or cells: Xenopus laevis oocytes injected with cRNA

hα6/α3β4L116Q = molecular target: T15, hα6/α3β4L116Q (Homo sapiens, UniProt P30926+Q15825, L142Q); format: cell-based
T15 construct: splicing the N-terminal extracellular domain of the α6 subunit with the α3 subunit; mutant made by PCR mutagenesis; host or cells: Xenopus laevis oocytes injected with cRNA

hα6/α3β4L107V, V115I = molecular target: T16, hα6/α3β4L107V, V115I (Homo sapiens, UniProt P30926+Q15825, L133V/V141I); assay: cell-based; format: cell-based
T16 construct: formed by splicing the N-terminal extracellular domain of the α6 subunit with the α3 subunit; fusion partner: remainder of the human α3 subunit (CHRNA3); expressed in transfected cells; host or cells: Xenopus laevis oocytes injected with cRNA

h[α6V32L, K61R/α3]β4 = format: cell-based, human
[7] = read-out: inhibition of the current response to 100 μM ACh

T4 sequence (Q15825 26-239 limits assumed): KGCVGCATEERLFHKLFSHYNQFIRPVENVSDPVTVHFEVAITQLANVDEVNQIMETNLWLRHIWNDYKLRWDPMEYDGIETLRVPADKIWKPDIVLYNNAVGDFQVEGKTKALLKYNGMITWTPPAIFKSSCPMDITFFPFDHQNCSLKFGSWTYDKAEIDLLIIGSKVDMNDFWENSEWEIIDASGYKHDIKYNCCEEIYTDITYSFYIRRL
T4 sequence (P30926 22-498 L133V): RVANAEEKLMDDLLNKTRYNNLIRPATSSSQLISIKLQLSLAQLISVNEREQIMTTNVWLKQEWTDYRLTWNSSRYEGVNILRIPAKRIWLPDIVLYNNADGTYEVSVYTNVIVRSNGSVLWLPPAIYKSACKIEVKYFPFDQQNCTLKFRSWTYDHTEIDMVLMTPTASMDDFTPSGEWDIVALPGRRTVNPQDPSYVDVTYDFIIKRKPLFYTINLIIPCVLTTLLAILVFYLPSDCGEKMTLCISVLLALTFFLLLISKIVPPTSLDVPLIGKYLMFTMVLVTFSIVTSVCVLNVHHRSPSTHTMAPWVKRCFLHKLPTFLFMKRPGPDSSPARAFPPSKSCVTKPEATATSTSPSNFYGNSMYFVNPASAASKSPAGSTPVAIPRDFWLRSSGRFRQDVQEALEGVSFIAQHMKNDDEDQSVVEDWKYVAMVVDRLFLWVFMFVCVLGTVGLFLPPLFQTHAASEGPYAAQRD
T16 sequence (Q15825 26-239 limits assumed): as the sequence (Q15825 26-239 limits assumed) above
T16 sequence (P30926 22-498 L133V/V141I): as the sequence (P30926 22-498 L133V) above, with V120I counted along it
T11 sequence (Q15825 26-239 limits assumed, stated change not applied): as the sequence (Q15825 26-239 limits assumed) above
T11 sequence (P30926 22-498 R96C): as the sequence (P30926 22-498 L133V) above, with R75C, V112L counted along it
T9 sequence (Q15825 26-239 limits assumed): as the sequence (Q15825 26-239 limits assumed) above
T9 sequence (P30926 22-498 T91A): as the sequence (P30926 22-498 L133V) above, with T70A, V112L counted along it
T14 sequence (Q15825 26-239 limits assumed): as the sequence (Q15825 26-239 limits assumed) above
T14 sequence (P30926 22-498 Y159H): as the sequence (P30926 22-498 L133V) above, with V112L, Y138H counted along it
T2 sequence (Q15825 26-239 limits assumed): as the sequence (Q15825 26-239 limits assumed) above
T2 sequence (P30926 22-498 K57R): as the sequence (P30926 22-498 L133V) above, with K36R, V112L counted along it
T3 sequence (Q15825 26-239 limits assumed): as the sequence (Q15825 26-239 limits assumed) above
T3 sequence (P30926 22-498 T187S): as the sequence (P30926 22-498 L133V) above, with V112L, T166S counted along it

Compound: CC(C)C[C@@H]1NC(=O)[C@H](CC(=O)O)NC(=O)[C@@H]2CCCN2C(=O)[C@H](Cc2c[nH]cn2)NC(=O)[C@H](CCCCN)NC(=O)[C@H](CC(N)=O)NC(=O)[C@H](CCCNC(=N)N)NC(=O)[C@@H]2CSSC[C@H](NC(=O)CN)C(=O)N[C@@H](CSSC[C@@H](C(N)=O)NC1=O)C(=O)N[C@@H](CO)C(=O)N[C@@H](CC(=O)O)C(=O)N1CCC[C@H]1C(=O)N1CCC[C@H]1C(=O)N2 [TxIB] (H-GCCSDPPCRNKHPDLC-NH2; disulfide 2-8, 3-16)
- Ratio (change in TxIB IC50 relative to hα6/α3β4) (h[α6K61R/α3]β4): 3.4
- activity at 10 µM (h[α6K61R/α3]β4; [7]): 22.1 ± 4.7%
- Hill Slope (hα6/α3β4K31R): 0.8 (0.7–0.9)
- Ratio (change in TxIB IC50 relative to hα6/α3β4) (hα6/α3β4K31R): 2.2
- Hill Slope (hα6/α3β4T161S): 0.8 (0.6–0.9)
- Ratio (change in TxIB IC50 relative to hα6/α3β4) (hα6/α3β4T161S): 1.8
- Hill Slope (hα6/α3β4L107V): 0.8 (0.7–0.9)
- Ratio (change in TxIB IC50 relative to hα6/α3β4) (hα6/α3β4L107V): 3.3
- activity at 10 µM (hα6/α3β4L107V; [7]): 21.7 ± 4.29%
- Hill Slope (h[α6M67T/α3]β4 [1]): 0.9 (0.7–1.0)
- Ratio (change in TxIB IC50 relative to hα6/α3β4) (h[α6M67T/α3]β4 [2]): 1.1
- Hill Slope (h[α6R3Q/α3]β4): 0.9 (0.8–1.1)
- Ratio (change in TxIB IC50 relative to hα6/α3β4) (h[α6R3Q/α3]β4): 0.9
- Hill Slope (hα6/α3β4S165I): 0.7 (0.6–0.9)
- Ratio (change in TxIB IC50 relative to hα6/α3β4) (hα6/α3β4S165I): 1
- Ratio (change in TxIB IC50 relative to hα6/α3β4) (h[α6Q14R/α3]β4 [3]): 1
- Hill Slope (h[α6Q14R/α3]β4 [4]): 0.9 (0.7–1.2)
- Hill Slope (hα6/α3β4T65A): 0.9 (0.8–1.0)
- Ratio (change in TxIB IC50 relative to hα6/α3β4) (hα6/α3β4T65A): 1
- Hill Slope (h[α6I56V/α3]β4): 1.0 (0.9–1.2)
- Ratio (change in TxIB IC50 relative to hα6/α3β4) (h[α6I56V/α3]β4): 0.9
- Hill Slope (hα6/α3β4R70C): 0.8 (0.7–1.0)
- Ratio (change in TxIB IC50 relative to hα6/α3β4) (hα6/α3β4R70C): 0.9
- Hill Slope (hα6/α3β4V53I): 0.8 (0.7–0.9)
- Ratio (change in TxIB IC50 relative to hα6/α3β4) (hα6/α3β4V53I): 1.1
- Hill Slope (h[α6V32L/α3]β4 [5]): 0.7 (0.7–0.8)
- activity at 10 µM (h[α6V32L/α3]β4 [5]; [7]): 25.3 ± 5.23%
- Ratio (change in TxIB IC50 relative to hα6/α3β4) (h[α6V32L/α3]β4 [6]): 4.2
- Hill Slope (hα6/α3β4Y133H): 0.8 (0.7–1.0)
- Ratio (change in TxIB IC50 relative to hα6/α3β4) (hα6/α3β4Y133H): 1.3
- Hill Slope (hα6/α3β4L116Q): 0.8 (0.7–0.9)
- Ratio (change in TxIB IC50 relative to hα6/α3β4) (hα6/α3β4L116Q): 1.7
- Hill Slope (hα6/α3β4L107V, V115I): 0.8 (0.8–0.9)
- Ratio (change in TxIB IC50 relative to hα6/α3β4) (hα6/α3β4L107V, V115I): 4.9
- time to full restoration of currents blocked by TxIB (hα6/α3β4L107V, V115I): ≤ 1 min
- activity at 10 µM (hα6/α3β4L107V, V115I; [7]): 25.1 ± 11.2%
- Ratio (change in TxIB IC50 relative to hα6/α3β4) (h[α6V32L, K61R/α3]β4): 8.1
- time to full restoration of currents blocked by TxIB (h[α6V32L, K61R/α3]β4): ≤ 1 min
- IC50 (h[α6V32L, K61R/α3]β4; read-out: IC50): 4.3 µM
- IC50 (h[α6V32L, K61R/α3]β4; read-out: IC50 (95% CI)): 4.34 µM
- activity (h[α6V32L, K61R/α3]β4; [7]): 31.9 ± 8.05%
